Here are results for four compounds from patent US20220354817A1, “PHARMACEUTICAL COMPOSITION FOR PREVENTING OR TREATING SARCOPENIA CONTAINING NON-NATURAL AMINO ACID DERIVATIVE” (MYO-TEC-SCI, priority 2019, published 2022).

One assay concerns myostatin promoter. The experiment in a line: Myostatin promoter activity, dual luciferase assay in C2C12 cells transfected with pGL4.15-MSTN. It is filed as cell-based, mouse. Conditions: for inhibition of myostatin promoter activity: 0.1 mM and 1 mM in medium without L-leucine; for inhibition of myostatin promoter activity / decrease in myostatin promoter activity compared to L-leucine: C2C12; for decrease in myostatin promoter activity compared to L-leucine: 1 mM in medium without L-leucine. On the procedure:
After seeding 1×10^5 cells of mouse skeletal muscle cells C2C12 (ATCC, US) in a 12-well culture plate, on the next day, pGL4.15 empty vector and pGL4.15-MSTN vector containing myostatin promoter were transfected using Lipofectamine 2000 for 4 hours. […] After one day, a dual luciferase assay kit (Promega Inc.) was used to measure the promoter activity of myostatin.

For assay [1], the system named is mouse skeletal muscle cells C2C12. The experiment in a line: Degree of differentiation of C2C12 cells and number of differentiated intracellular nuclei. The class given is cell-based. The following applies: 1 mM in differentiation medium, C2C12 grown without L-leucine; for cells in which differentiation occurs, compared to L-leucine: days 1, 6, 9. As to the method: To observe how L-leucine and D-Leu-OMe-HCl act on the differentiation of mouse skeletal muscle cells C2C12, a differentiation medium containing 1 mM L-leucine and D-Leu-OMe-HCl was given to mouse skeletal muscle cells C2C12 continuously grown in a medium without L-leucine, respectively. On days 1, 6, and 9, the degree of differentiation of mouse skeletal muscle cells and the number of nuclei present in the differentiated cells were measured (see FIG. 13).
To observe how L-leucine and D-Leu-BOC—H2O act on the differentiation of mouse skeletal muscle cells C2C12, a differentiation medium containing 1 mM L-leucine and D-Leu-BOC—H2O was given to mouse skeletal muscle cells C2C12 continuously grown in a medium without L-leucine, respectively. On days 1, 6, and 9, the degree of differentiation of mouse skeletal muscle cells and the number of nuclei present in the differentiated cells were measured (see FIG. 15).

A further assay has as its system myostatin mRNA. Nature of the assay: Myostatin mRNA expression by qRT-PCR in C2C12 cells, corrected with beta-actin. It is filed as cell-based, mouse. The following applies: for inhibition of myostatin mRNA expression: 0.1 mM and 1 mM in medium without L-leucine. The text has this:
[…] After one day, the mRNA expression level of myostatin was identified using qRT-PCR, and the myostatin mRNA expression value was corrected using the expression value of beta-actin.
A general note: Real-time PCR tracks product formation cycle by cycle.

The mark [2] stands for this setting: 1 mM in medium without L-leucine, C2C12.
Where [3] appears, read: 0.1 mM in medium without L-leucine, C2C12, after one day.

Structures are written as SMILES. Where a name gives a salt, the structure may show the parent alone.

As for `CC(C)CC(NC(=O)OC(C)(C)C)C(=O)O` [D-Leu-BOC—H2O], in the assay on myostatin promoter, the “inhibition of myostatin promoter activity” value was “inhibited” and the “decrease in myostatin promoter activity compared to L-leucine” value is recorded as “about 1.89 times”. Besides, in assay [1], the “cells containing 6 or more nuclei” value is recorded as “observed statistically significantly” and the “cells in which differentiation occurs, compared to L-leucine” value is “relatively large number of cells in which differentiation occurs”. Besides, the “inhibition of myostatin mRNA expression” value with myostatin mRNA (C2C12) is recorded as “inhibited”. Further, in the assay with myostatin mRNA (setting [2]), the “decrease of myostatin mRNA expression level relative to L-leucine” value is reported as “similarly to L-leucine”.
In the case of `COC(=O)C(N)CC(C)C` [D-Leu-OMe-HCl], in the assay on myostatin promoter, the “inhibition of myostatin promoter activity” value is reported as “inhibited” and the “decrease in myostatin promoter activity compared to L-leucine” value is given as “about 1.96 times”. In assay [1], the “cells containing 6 or more nuclei” value is on record as “observed statistically significantly” and the “cells in which differentiation occurs, compared to L-leucine” value was “relatively large number of cells in which differentiation occurs”. Besides, the “inhibition of myostatin mRNA expression” value with myostatin mRNA (C2C12) is recorded as “inhibited”. For the same compound, the “decrease in myostatin mRNA expression level compared to L-leucine” value with myostatin mRNA (0.1 mM in medium without L-leucine, C2C12) is listed as “about 1.97 times”. Also, in the assay with myostatin mRNA (setting [2]), the “decrease in myostatin mRNA expression level compared to L-leucine” value is reported as “about 3.68 times”.
Take `CC(C)C[C@H](N)C(=O)OC(C)(C)C.Cl` [L-Leu-OtBu-HCl]: in the assay on myostatin promoter (setting [3]), the myostatin promoter activity entry is “significantly reduced”. For the same compound, the “expression of myostatin mRNA” value with myostatin mRNA (setting [3]) was “decreased”.
As to `CC(C)C[C@H](N)C(=O)O` [L-leucine, reference compound], the “inhibition of myostatin promoter activity” value with myostatin promoter is reported as “inhibited”. In addition, the “inhibition of myostatin mRNA expression” value in the assay on myostatin mRNA (C2C12) is “inhibited”.
